Measurements published in patent US10227321B2, “Soothing pro-pheromonal composition for mammals” (Melchior Material And Life Science France, priority 2014, dated 2019).

Tests used:
[1] = Estimated amounts released into the atmosphere from the thermal diffuser; format: physicochemical; conditions: for Daily amount released into the atmosphere: at 100° C.
Protocol: Based on the preceding measurements, we can estimate that the amounts released over the 35-day period by molecules going into each composition are the following (in grams):
By considering that at 100° C., all of product 122:1 decomposes as was shown in Example 3, we can estimate the daily amounts of the various products released into the atmosphere according to the various formulae.

dogs = conditions: dog, in vivo; cited from earlier work
[2] = In vitro study of 2M2B release: climatic chamber, gas chromatography; format: physicochemical; conditions: solution of Example 2b
Protocol: Conditions A: 1) Solketal/KOH/RI/DMSO/50° C. 2) APTS/MeOH/H2O. Conditions B: 1) Solketal/KOH/RBr/Toluene/DS/2) APTS/MeOH/H2O. Conditions C: 1) CH2Cl2/Et3N/MsCl 2) Solketal/KOH/ROMs/Toluene/DS/Δ3) APTS/MeOH/H2O. GC Method Used: Equipment: GC, Hewlett Packard 5890 Series II Detector FID Column: HP5 30 m, 0.53 mm, 0.88 μm Pressure: 11 psi Injection volume: 1 μL Sample preparation: 4 mg/mL in AcOEt Injector temperature: 270° C. Detector temperature: 280° C. Oven:
The solution prepared in Example 2b is used in a climatic chamber at 100° C. and 30° C. (conditions corresponding either to the temperature of a thermal diffuser or to room temperature). Samples are taken at regular intervals and the disappearance of compound 122:1 and the appearance of C22:1 AKG is measured by gas chromatography. The results are presented in the following table (the percentages are expressed only taking into consideration integration relative to compound 118 and of C18:0 AKG): […]

SMILES: CC=C(C)C=O [2-Methyl-2-butenal, 2-methyl-2-butenal]
- Daily amount released into the atmosphere ([1]; 2% Formula (2e)): 0.036 mg
- Daily amount released into the atmosphere ([1]; 5% Formula (2d)): 36 mg
- Daily amount released into the atmosphere ([1]; 10% Formula (2c)): 0.32 mg
- effect on dogs (dogs): has an effect on the heartbeat and the behavior of dogs

SMILES: C/C=C(\C)C1OCC(COCCCCCCCCCCCC/C=C\CCCCCCCC)O1 (centres unmarked) [122:1]
- amount released over the 35-day period ([1]; from Formula 2c): 0.05 grams
- amount released over the 35-day period ([1]; from Formula 2e): 0.0063 grams
- amount released over the 35-day period ([1]; from Formula 2d): 0.0063 grams

SMILES: CCCCCCCCCCCCCCCCCCOCC(O)CO (centres unmarked) [C18:0 AKG]
- % (GC integration relative to compound 118 and C18:0 AKG) ([2]; T = 30° C., 1 d): 0%
- % (GC integration relative to compound 118 and C18:0 AKG) ([2]; T = 30° C., 2 d): 0%
- % (GC integration relative to compound 118 and C18:0 AKG) ([2]; T = 30° C., 7 d): 0%
- % (GC integration relative to compound 118 and C18:0 AKG) ([2]; T = 30° C., 14 d): 0.5%
- % (GC integration relative to compound 118 and C18:0 AKG) ([2]; T = 30° C., 21 d): 1%
- % (GC integration relative to compound 118 and C18:0 AKG) ([2]; T = 30° C., 28 d): 1%
- % (GC integration relative to compound 118 and C18:0 AKG) ([2]; T = 30° C., time 0): 0%
- % (GC integration relative to compound 118 and C18:0 AKG) ([2]; T = 100° C., 3 h): 48%
- % (GC integration relative to compound 118 and C18:0 AKG) ([2]; T = 100° C., 6 h): 75%
- % (GC integration relative to compound 118 and C18:0 AKG) ([2]; T = 100° C., 1 d): 98%
- % (GC integration relative to compound 118 and C18:0 AKG) ([2]; T = 100° C., 2 d): 100%
- % (GC integration relative to compound 118 and C18:0 AKG) ([2]; T = 100° C., 7 d): 100%
- % (GC integration relative to compound 118 and C18:0 AKG) ([2]; T = 100° C., 14 d): 100%
- % (GC integration relative to compound 118 and C18:0 AKG) ([2]; T = 100° C., 21 d): 100%
- % (GC integration relative to compound 118 and C18:0 AKG) ([2]; T = 100° C., 28 d): 100%
- % (GC integration relative to compound 118 and C18:0 AKG) ([2]; climatic chamber, T = 100° C., time 0): 0%

SMILES: C/C=C(\C)C1OCC(COCCCCCCCCCCCC/C=C\CCCCCCCC)O1 (centres unmarked) [C22:1 AKG]
- Daily amount released into the atmosphere ([1]; 2% Formula (2e)): 0.14 mg
- Daily amount released into the atmosphere ([1]; 5% Formula (2d)): 0.14 mg
- Daily amount released into the atmosphere ([1]; 10% Formula (2c)): 1.2 mg

SMILES: CCCCC/C=C\C/C=C\CCCCCCCC(=O)O [Linoleic acid]
- Daily amount released into the atmosphere ([1]; 2% Formula (2e)): 5.8 mg
- Daily amount released into the atmosphere ([1]; 5% Formula (2d)): 5.1 mg
- Daily amount released into the atmosphere ([1]; 10% Formula (2c)): 5.5 mg
- amount released over the 35-day period ([1]; from Formula 2c): 0.195 grams
- amount released over the 35-day period ([1]; from Formula 2e): 0.2 grams
- amount released over the 35-day period ([1]; from Formula 2d): 0.188 grams
